According to patent US20240254138A1, “TRICYCLIC PYRIMIDINES AS CYCLIN-DEPENDENT KINASE 7 (CDK7) INHIBITORS” (JANSSEN PHARMACEUTICA NV, priority 2021, published 2024):
Like-named read-outs stand apart in the source and are kept apart here.

How the values were obtained:
[1] = tested on: RNA Polymerase II Serine 5 phosphorylation (Rpb1 CTD, downstream substrate of CDK7) in A549 cells; test: Imaging-based cellular RNA PolII Ser5 phosphorylation assay in A549 cells; assay type: cell-based, human; settings: wild-type CDK7, RNA PolII Ser5 phosphorylation, averaged over all measurements; for IC50: Homo sapiens, A549, A549 cells, read-out: CDK7_A549 Wild-type CDK7 (pIC50) (converted); for CDK7_A549 Wild-type CDK7 (pIC50): A549 cells
Method in brief: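 A549 cells, seeded 1000/well in DMEM with 1% FBS and cultured 20 h, were treated with compound for 3 h at 37 °C. Ser5-phospho-Rpb1 CTD detected by immunofluorescence imaging after fixation and methanol permeabilization; IC50 from curve fit normalized to DMSO and 10 μM reference-compound controls.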

[2] = tested on: RNA Polymerase II Serine 5 phosphorylation in A549 cells overexpressing CDK7-mutant (C312S); test: Imaging-based cellular RNA PolII Ser5 phosphorylation assay in A549 cells overexpressing CDK7-mutant (C312S); assay type: cell-based, human; settings: RNA PolII Ser5 phosphorylation, averaged over all measurements; for IC50: Homo sapiens, A549, A549 cells overexpressing CDK7-mutant (C312S), read-out: CDK7_A549 mutant hCDK7(pIC50) (converted); for CDK7_A549 mutant hCDK7(pIC50): A549 cells overexpressing CDK7-mutant (C312S)
Method in brief: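 A549 cells overexpressing CDK7 C312S (with endogenous wild-type CDK7) were treated with compound for 3 h at 37 °C in 1% FBS medium. Phospho-Rpb1 CTD Ser5 was immunostained after fixation and imaged. IC50 came from curve fit of % control, normalised to DMSO and 10 μM reference-compound controls.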

[3] = biological target: CDK7/cyclinH/MAT1 trimeric complex (Homo sapiens, UniProt P50613); test: In vitro CDK7 assay, potency of irreversible covalent inhibitors (kinact/KI), coupled PK/LDH ADP readout at 340 nm; settings: for CDK7 (kinact/KI, M^−1*s^−1): potency of irreversible covalent inhibitors
[4] = CDK7 (20 nM enz.) (KI, μM), 20 nM enzyme
[5] = read-out: CDK7 (20 nM enz.) (kinact, s^−1), 20 nM enzyme
[6] = read-out: CDK7 (20 nM enz.) (kinact/KI, M^−1*s^−1), 20 nM enzyme
[7] = read-out: CDK7 (20 nM enz.) (kobs/[I], M^−1*s^−1), 20 nM enzyme
[8] = read-out: CDK7 (kinact/KI, M^−1*s^−1), potency of irreversible covalent inhibitors, 1 mM ATP, room temperature, averaged values over all measurements
[9] = 1 mM ATP, room temperature, averaged values over all measurements

Chain of CDK7/cyclinH/MAT1 trimeric complex (P50613 whole entry): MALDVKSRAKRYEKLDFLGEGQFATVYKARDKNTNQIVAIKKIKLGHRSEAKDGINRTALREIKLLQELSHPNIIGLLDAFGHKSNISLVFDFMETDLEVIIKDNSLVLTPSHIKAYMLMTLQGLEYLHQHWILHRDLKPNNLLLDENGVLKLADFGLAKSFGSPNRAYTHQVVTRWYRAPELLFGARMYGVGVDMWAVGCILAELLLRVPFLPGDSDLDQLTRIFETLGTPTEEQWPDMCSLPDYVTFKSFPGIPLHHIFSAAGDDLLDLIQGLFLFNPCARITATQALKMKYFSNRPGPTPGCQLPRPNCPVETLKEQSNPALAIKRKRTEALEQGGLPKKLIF
Chain of CDK7/cyclinH/MAT1 trimeric complex (P51946 whole entry partner): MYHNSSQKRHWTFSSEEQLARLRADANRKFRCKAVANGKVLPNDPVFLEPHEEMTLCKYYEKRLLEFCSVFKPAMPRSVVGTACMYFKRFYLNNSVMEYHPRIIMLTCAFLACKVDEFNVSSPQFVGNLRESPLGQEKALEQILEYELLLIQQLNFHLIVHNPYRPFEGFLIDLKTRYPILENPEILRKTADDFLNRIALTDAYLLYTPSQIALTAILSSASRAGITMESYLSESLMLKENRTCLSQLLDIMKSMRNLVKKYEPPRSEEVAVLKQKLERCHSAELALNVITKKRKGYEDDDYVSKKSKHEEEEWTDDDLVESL
Chain of CDK7/cyclinH/MAT1 trimeric complex (P51948 whole entry partner): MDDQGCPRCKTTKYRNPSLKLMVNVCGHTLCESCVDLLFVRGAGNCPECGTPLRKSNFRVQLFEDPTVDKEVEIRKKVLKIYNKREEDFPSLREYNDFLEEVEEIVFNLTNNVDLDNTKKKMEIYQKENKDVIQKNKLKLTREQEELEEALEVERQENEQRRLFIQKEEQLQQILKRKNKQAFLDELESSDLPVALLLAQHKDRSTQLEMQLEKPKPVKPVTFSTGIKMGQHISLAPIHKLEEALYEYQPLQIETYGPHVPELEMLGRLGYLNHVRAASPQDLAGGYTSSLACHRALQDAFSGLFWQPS

SMILES | IC50 [1] [nM] | IC50 [2] [nM] | Ki [3, 4] [µM] | kinact [3, 5] [s⁻¹] | kinact/KI [3, 6] [M⁻¹ s⁻¹] | further results
C=CC(=O)N1CCC(N2CC(c3cc4c(c(C5CC5)n3)O[C@@H](C)c3c(N5CCOCC5)ccnc3N4)C2)CC1 (single isomer, unassigned) [Compound 375] | 1290 | > 10000 | 2.12 | 2.58e-05 | 12.2 | –
C=CC(=O)N1CC(N2CC(c3cc4c(c(C)n3)O[C@@H](C)c3c(C5CCOCC5)ccnc3N4)C2)C1 (single isomer, unassigned) [Compound 480] | 4570 | > 10000 | – | – | 2.97 | –
C=CC(=O)N1CC(N2CCC(c3ccc4c(c3)Nc3nccc(N5CCS(=O)(=NC)CC5)c3CO4)CC2)C1 [Compound 84] | 575 | > 10000 | 0.191 | 6.74e-05 | 354 | –
C=CC(=O)N1CC(N2CC(c3cc(C)c4c(c3)Nc3nccc(C5CCOCC5)c3[C@H](C)O4)C2)C1 (single isomer, unassigned) [Compound 252] | 2510 | > 10000 | 25.5 | 0.000306 | 12 | –
CC#CC(=O)N1CC(N2CCC(c3cc4c(c(C5CC5)n3)O[C@H](C)c3c(N5CCOCC5)ccnc3N4)CC2)C1 (single isomer, unassigned) [Compound 499] | – | – | – | – | – | CDK7_A549 Wild-type CDK7 (pIC50) [1]: 5.74; CDK7_A549 mutant hCDK7(pIC50) [2]: <5; CDK7 (20 nM enz.) (kinact, s^−1) ([3]; 20 nM enzyme): 4.482e-05 s⁻¹; CDK7 (20 nM enz.) (kinact/KI, M^−1*s^−1) ([3]; 20 nM enzyme): 20.4314 M⁻¹ s⁻¹; Ki ([3]; read-out: CDK7 (20 nM enz.) (KI), 20 nM enzyme): 2.19 µM
C=CC(=O)N1CC[C@@H](N2CC(c3cc4c(c(C5CC5)n3)OCc3c(-c5cnn(C)c5)ccnc3N4)C2)C1 (single isomer, unassigned) [Compound 286] | 126 | > 10000 | 0.146 | 4.74e-05 | 324 | –
C=CC(=O)N1CC(N2CCC(c3ccc4c(c3)Nc3nccc(-c5cnn(C)c5)c3[C@@H](C)O4)CC2)C1 (single isomer, unassigned) [Compound 233] | 28.2 | 8710 | – | – | – | kinact/KI [3, 7]: 1450 M⁻¹ s⁻¹
C=CC(=O)N1CCC(N2CC(c3cc4c(c(C(F)(F)F)c3)OCc3c(N5CCOCC5)ccnc3N4)C2)CC1 [Compound 111] | 45.7 | 4170 | – | – | – | kinact/KI [3, 7]: 622 M⁻¹ s⁻¹
C=CC(=O)N1CC(N2CCC(c3ccc4c(c3)Nc3nccc(N5C[C@H]6CC[C@@H](C5)O6)c3CO4)CC2)C1 [Compound 11] | 87.1 | > 10000 | – | – | – | kinact/KI [3, 8]: 688 M⁻¹ s⁻¹
C=C(C(=O)N1CCC(N2CC(c3cc4c(c(C)n3)OCc3c(-c5cnn(C)c5)ccnc3N4)C2)CC1)n1cccn1 [Compound 349] | 97.7 | 8320 | 0.0563 | 3.25e-05 | 578 | –
C=CC(=O)N1CC[C@H](N2CC(c3cc(C)c4c(c3)Nc3nccc(-c5cnn(C)c5)c3CO4)C2)C1 (single isomer, unassigned) [Compound 192] | 79.4 | > 10000 | 0.0907 | 4.14e-05 | 456 | –
C=CC(=O)N1CC(N2CCC(c3ccc4c(c3)OCc3c(-c5cnn(C)c5)ccnc3N4)CC2)C1 [Compound 52] | 282 | 2820 | – | – | – | Ki ([3]; CDK7 (KI(μM)), […], 1 mM ATP, room temperature, averaged values over all measurements): 0.166 µM; kinact ([3]; read-out: CDK7 (kinact, s^−1), kinact = maximal rate of inactivation, 1 mM ATP, room temperature, averaged values over all measurements): 0.000166 s⁻¹; kinact/KI [3, 8]: 998 M⁻¹ s⁻¹
C=CC(=O)N1CC[C@H](N2CC(c3cc4c(c(C(F)(F)F)n3)O[C@H](C)c3c(N5CCOCC5)ccnc3N4)C2)C1 (single isomer, unassigned) [Compound 501] | – | > 10000 | 2.35 | 3.59e-05 | – | CDK7_A549 Wild-type CDK7 (pIC50) [1]: 5.78; CDK7 (20 nM enz.) (kinact/KI, M^−1*s^−1) ([3]; 20 nM enzyme): 15.2689 M⁻¹ s⁻¹
C=CC(=O)N1CC(N2CCC(c3ccc4c(c3)Nc3nccc(N5CCOCC5)c3CO4)CC2)C1 [Compound 121] | – | – | 0.0963 | – | – | CDK7_A549 Wild-type CDK7 (pIC50) [1]: 6.9; CDK7_A549 mutant hCDK7(pIC50) [2]: <5; CDK7 (20 nM enz.) (kinact, s^−1) ([3]; 20 nM enzyme): 9.753e-05 s⁻¹; CDK7 (20 nM enz.) (kinact/KI, M^−1*s^−1) ([3]; 20 nM enzyme): 1012.54 M⁻¹ s⁻¹
CC#CC(=O)N1CC(N2CCC(c3cc4c(c(C)n3)O[C@H](C)c3c(N5CCOCC5)ccnc3N4)CC2)C1 (single isomer, unassigned) [Compound 370] | – | > 10000 | 0.112 | 2.32e-05 | – | CDK7_A549 Wild-type CDK7 (pIC50) [1]: 7.19; CDK7 (20 nM enz.) (kinact/KI, M^−1*s^−1) ([3]; 20 nM enzyme): 206.483 M⁻¹ s⁻¹
C=CC(=O)N1CCC(N2CC(c3cc4c(c(C5CC5)n3)O[C@H](C)c3c(N5CCOCC5)ccnc3N4)C2)CC1 (single isomer, unassigned) [Compound 377] | 50.1 | 5750 | 0.0468 | 2.2e-05 | 469 | –

SMILES | IC50 [1] [nM] | IC50 [2] [nM] | Ki [3, 4] [µM] | kinact [3, 5] [s⁻¹] | kinact/KI [3, 6] [M⁻¹ s⁻¹] | further results
CC#CC(=O)N1CC(N2CCC(c3cc4c(c(C)n3)OCc3c(N5CCOCC5)ccnc3N4)N(C)CC2)C1 (stereo not drawn) [Compound 373] | 269 | > 10000 | 0.113 | 1.66e-05 | 147 | –
C=CC(=O)N1CC(c2nc(C)c(-c3cc(C)c4c(c3)Nc3nccc(C5CCOCC5)c3CO4)c(C)n2)C1 [Compound 129] | 151 | > 10000 | 0.17 | 5.48e-05 | 323 | –
C=CC(=O)N1CC(N2CC(c3cc4c(c(C)n3)OCc3c(-c5cnn(C)c5)ccnc3N4)C2)C1 [Compound 198] | 240 | > 10000 | 0.365 | 4.47e-05 | 122 | –
C=C(C(=O)N1CC(N2CCC(c3cc4c(c(C)n3)OCc3c(N5CCOCC5)ccnc3N4)CC2)C1)n1cccn1 [Compound 496] | 14.1 | 7240 | – | – | – | kinact/KI [3, 7]: 680 M⁻¹ s⁻¹
C=CC(=O)N1CC(N2CC[C@@H](c3cc4c(c(C)n3)O[C@H](C)c3c(N5CCOCC5)ccnc3N4)C2)C1 (single isomer, unassigned) [Compound 245] | 56.2 | > 10000 | 0.0559 | 3.61e-05 | 645 | –
C=CC(=O)N1CC(N2CCC(c3cc(C)c4c(c3)Nc3nccc(C5CCOCC5)c3CO4)CC2)C1 [Compound 73] | – | – | – | – | – | CDK7_A549 Wild-type CDK7 (pIC50) [1]: 7.32; CDK7_A549 mutant hCDK7(pIC50) [2]: <5; CDK7 (20 nM enz.) (kinact/KI, M^−1*s^−1) ([3]; 20 nM enzyme): 1301.8 M⁻¹ s⁻¹
C=CC(=O)N1CC(N2CCC(c3ccc4c(c3)Nc3nccc(N5CCOCC5)c3CO4)CC2)C1 [compound 7] | – | – | – | – | – | CDK7_A549 Wild-type CDK7 (pIC50) [1]: 6.84; CDK7_A549 mutant hCDK7(pIC50) [2]: <5; CDK7 (kinact/KI, M^−1*s^−1) [3, 9]: 1065.34 M⁻¹ s⁻¹
C=CC(=O)N1CCC(N2CC(c3cc(C)c4c(c3)Nc3nccc(-c5cnn(C)c5)c3CO4)C2)CC1 [Compound 338] | – | – | – | 4.86e-05 | – | CDK7_A549 Wild-type CDK7 (pIC50) [1]: 7.25; CDK7_A549 mutant hCDK7(pIC50) [2]: 5.52; CDK7 (20 nM enz.) (kinact/KI, M^−1*s^−1) ([3]; 20 nM enzyme): 299.026 M⁻¹ s⁻¹
CC#CC(=O)N1CC(N2CC[C@@H](c3cc4c(c(C)n3)O[C@@H](C)c3c(N5CCOCC5)ccnc3N4)N(C)CC2)C1 (single isomer, unassigned) [Compound 521] | 5250 | > 10000 | 1.71 | 2.72e-05 | 15.9 | –
CC#CC(=O)N1CC(N2CCC(c3cc4c(c(C5CC5)n3)OCc3c(C5CCOCC5)ccnc3N4)CC2)C1 [Compound 400] | 105 | > 10000 | 0.0914 | 5.02e-05 | 549 | –
C=CC(=O)N1CC(N2CCC(c3ccc4c(c3)Nc3nccc(C5CCOCC5)c3CO4)CC2)C1 [compound 34] | – | – | – | – | – | CDK7_A549 Wild-type CDK7 (pIC50) [1]: 6.81; CDK7_A549 mutant hCDK7(pIC50) [2]: <5; CDK7 (kinact/KI, M^−1*s^−1) [3, 9]: 2083.98 M⁻¹ s⁻¹; kinact/KI [3, 7]: 1030 M⁻¹ s⁻¹
C=CC(=O)N1CC[C@@H](N2CCC(c3cc4c(c(C)n3)OCc3c(N5CCOCC5)ccnc3N4)CC2)C1 (single isomer, unassigned) [Compound 363] | – | – | 0.0272 | – | – | CDK7_A549 Wild-type CDK7 (pIC50) [1]: 7.52; CDK7_A549 mutant hCDK7(pIC50) [2]: <5; CDK7 (20 nM enz.) (kinact, s^−1) ([3]; 20 nM enzyme): 5.097e-05 s⁻¹; CDK7 (20 nM enz.) (kinact/KI, M^−1*s^−1) ([3]; 20 nM enzyme): 1874.15 M⁻¹ s⁻¹
CC#CC(=O)N1CC(c2nc(C)c(-c3cc4c(c(C)n3)OCc3c(N5CCOCC5)ccnc3N4)c(C)n2)C1 [Compound 278] | 166 | > 10000 | 0.226 | 3.13e-05 | 139 | –
C=CC(=O)N1CC(N2CC(c3cc(C#N)c4c(c3)Nc3nccc(N5CCOCC5)c3CO4)C2)C1 [Compound 253] | 50.1 | 6310 | – | – | – | kinact/KI [3, 7]: 989 M⁻¹ s⁻¹
C=CC(=O)N1CC(N2CCC(c3cc(C#N)c4c(c3)Nc3nccc(C5CCOCC5)c3CO4)CC2)C1 [Compound 125] | 27.5 | 7240 | – | – | – | kinact/KI [3, 7]: 1230 M⁻¹ s⁻¹
